Source: US8859555B2, “Lysine Specific Demethylase-1 inhibitors and their use” (Oryzon Genomics S.A., priority 2009, dated 2014)
pEC50, pKi: −log10 of the molar value. Structures can show the parent of a compound that is named as a salt. Where two headings read alike, the source gives them in different places.

How the values were obtained:
[1] = molecular target: T1, Human recombinant LSD1 protein (Homo sapiens, UniProt O60341); assay: LSD1 inhibition, Amplex Red peroxide/peroxidase-coupled demethylase assay; assay type: biochemical; conditions: for pKi: Ki range class
T1 construct: purchased BPS Bioscience Inc
Excerpt: Human recombinant LSD1 protein was purchased from BPS Bioscience Inc. In order to monitor LSD1 enzymatic activity and/or its inhibition rate by our inhibitor(s) of interest, di-methylated H3-K4 peptide (Millipore) was chosen as a substrate. The demethylase activity was estimated, under aerobic conditions, by measuring the release of H2O2 produced during the catalytic process, using the Amplex® Red peroxide/peroxidase-coupled assay kit (Invitrogen).
Within the experiment, each concentration of inhibitor was tested in triplicate. […] The enzymatic reactions were set up in a 50 mM sodium phosphate, pH 7.4 buffer. At the end of the incubation, Amplex® Red reagent and horseradish peroxidase (HPR) solution were added to the reaction according to the recommendations provided by the supplier (Invitrogen), and left to incubate for 30 extra minutes at room temperature in the dark. A 1 μM H2O2 solution was used as a control of the kit efficiency. The conversion of the Amplex® Red reagent to resorufin due to the presence of H2O2 in the assay, was monitored by fluorescence (excitation at 540 nm, emission at 590 nm) using a microplate reader (Infinite 200, Tecan). Arbitrary units were used to measure level of H2O2 produced in the absence and/or in the presence of inhibitor.
The maximum demethylase activity of LSD1 was obtained in the absence of inhibitor and corrected for background fluorescence in the absence of LSD1. The Ki of each inhibitor was estimated at half of the maximum activity.

[2] = molecular target: T2, Human recombinant monoamine oxidase MAO-A (Homo sapiens, UniProt P21397); assay: MAO-A kynuramine fluorescence inhibition assay; assay type: biochemical
T2 construct: purchased Sigma Aldrich
T2 sequence (P21397 1-527): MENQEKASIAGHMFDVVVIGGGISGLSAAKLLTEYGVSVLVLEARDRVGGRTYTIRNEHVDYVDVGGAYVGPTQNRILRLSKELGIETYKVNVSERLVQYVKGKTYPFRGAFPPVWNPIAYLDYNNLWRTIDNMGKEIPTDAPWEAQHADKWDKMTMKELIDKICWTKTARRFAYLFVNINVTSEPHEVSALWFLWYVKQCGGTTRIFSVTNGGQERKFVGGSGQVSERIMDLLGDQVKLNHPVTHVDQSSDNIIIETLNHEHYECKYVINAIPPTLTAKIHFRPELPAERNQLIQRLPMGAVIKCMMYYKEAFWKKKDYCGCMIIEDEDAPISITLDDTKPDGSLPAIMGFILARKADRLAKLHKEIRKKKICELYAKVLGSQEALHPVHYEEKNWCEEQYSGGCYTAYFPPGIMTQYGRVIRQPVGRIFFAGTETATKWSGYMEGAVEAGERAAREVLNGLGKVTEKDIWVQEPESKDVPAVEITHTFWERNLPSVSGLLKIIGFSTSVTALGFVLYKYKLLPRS
Excerpt: (§1) Human recombinant monoamine oxidase proteins MAO-A and MAO-B were purchased from Sigma Aldrich. […] In order to monitor MAO enzymatic activities and/or their inhibition rate by inhibitor(s) of interest, a fluorescent-based (inhibitor)-screening assay was set up. 3-(2-Aminophenyl)-3-oxopropanamine (kynuramine dihydrobromide, Sigma Aldrich), a non fluorescent compound was chosen as a substrate. Kynuramine is a non-specific substrate for both MAOs activities. While undergoing oxidative deamination by MAO activities, kynuramine is converted into 4-hydroxyquinoline (4-HQ), a resulting fluorescent product.
(§2) The monoamine oxidase activity was estimated by measuring the conversion of kynuramine into 4-hydroxyquinoline. Assays were conducted in 96-well black plates with clear bottom (Corning) in a final volume of 100 μL. The assay buffer was 100 mM HEPES, pH 7.5. Each experiment was performed in triplicate within the same experiment.
(§3) Briefly, a fixed amount of MAO (0.25 μg for MAO-A and 0.5 μg for MAO-B) was incubated on ice for 15 minutes in the reaction buffer, in the absence and/or in the presence of various concentrations of inhibitor (e.g., from 0 to 50 μM, depending on the inhibitor strength).
(§4) After leaving the enzyme(s) interacting with the inhibitor, 60 to 90 μM of kynuramine was added to each reaction for MAO-B and MAO-A assay respectively, and the reaction was left for 1 hour at 37° C. in the dark. The oxidative deamination of the substrate was stopped by adding 50 μL (v/v) of NaOH 2N. The conversion of kynuramine to 4-hydroxyquinoline, was monitored by fluorescence (excitation at 320 nm, emission at 360 nm) using a microplate reader (Infinite 200, Tecan). Arbitrary units were used to measure levels of fluorescence produced in the absence and/or in the presence of inhibitor.
(§5) The Ki of each inhibitor was measure at Vmax/2.

[3] = molecular target: T3, Human recombinant monoamine oxidase MAO-B (Homo sapiens, UniProt P27338); assay: MAO-B kynuramine fluorescence inhibition assay; assay type: biochemical; conditions: Ki range class
T3 construct: purchased Sigma Aldrich
T3 sequence (P27338 1-520): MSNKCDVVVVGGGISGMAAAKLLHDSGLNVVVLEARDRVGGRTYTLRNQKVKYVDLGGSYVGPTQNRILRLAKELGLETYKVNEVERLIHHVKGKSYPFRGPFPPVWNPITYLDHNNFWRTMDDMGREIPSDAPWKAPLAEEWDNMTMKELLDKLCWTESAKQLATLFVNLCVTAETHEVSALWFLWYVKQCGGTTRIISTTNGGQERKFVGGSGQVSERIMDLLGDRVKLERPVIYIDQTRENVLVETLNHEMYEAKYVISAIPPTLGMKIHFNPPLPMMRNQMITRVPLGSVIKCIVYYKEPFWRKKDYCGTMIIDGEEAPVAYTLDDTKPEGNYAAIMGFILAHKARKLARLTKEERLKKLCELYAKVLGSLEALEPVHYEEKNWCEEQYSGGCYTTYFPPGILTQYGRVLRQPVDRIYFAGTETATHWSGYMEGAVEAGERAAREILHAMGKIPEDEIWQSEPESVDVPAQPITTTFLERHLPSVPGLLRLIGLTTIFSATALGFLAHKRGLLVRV
Excerpt: as §1, §2, §3, §4, §5

[4] = test system: human colon cancer cell line HCT116; assay: Cancer cell line study, alamarBlue viability assay; assay type: cell-based; conditions: HCT-116, dose required to inhibit cell growth by 50%, 72 hours, read-out: EC50 value for HCT-116 cells
Method: The human colon cancer cell line HCT116 was obtained from the American Type Culture Collection (ATCC; CCL-247). The HCT116 cell line was maintained in DMEM GlutaMAX (Invitrogen) supplemented with 10% fetal calf serum. Cells were grown in a humidified incubator at 37 C in 5% CO2. Cells were plated in 96-well plates at a density of 6000 cells/well in 100 μl medium 24 h before addition of drugs. They were then added in concentrations from 100 μM to 0.45 nM (each concentration in triplicate). To do so, a drugs-dilution plate at twice the screening concentrations was prepared. 72 hours later, alamarBlue (Biosource, Invitrogen) viability assay was performed following manufacturer's protocol. In brief, alamarBlue diluted in media was added to cells to have a 5% solution. Cells were incubated at 37 C, 3 hours and at room temperature, 30 min. Cells with no drug and, cells with no drug and lysed with triton X-100 were used as controls. Fluorescence was monitored at 530 nm excitation and 590 nm emission wavelengths. Results were quantified using Infinite F200 Microplate Reader (Tecan Group, Ltd.). EC50 were calculated as the dose of drugs required to inhibit cell growth by 50%, with Origin 7.0 computer program.

[5] = Ki range class, read-out: MAO A (Ki)

Row | SMILES | pKi [1] | pKi [2, 5] | pKi [3] | pKi ([2]; Ki (IC50), in these assays described herein, read-out: Ki for MAO-A) | MAO A (Ki) ([2]; Ki range class) | pEC50 [4] | MAO B (Ki) [3] | Ki value for LSD1 lower than Ki values for MAO-A and MAO-B ([1]; selectivity LSD1 versus MAO-A and MAO-B)
1 | CN1CCN(CCN[C@@H]2C[C@H]2c2ccccc2)CC1 (relative stereo) [Example 1, N-[2-(4-methylpiperazin-1-yl)ethyl]-N-[(trans)-2-phenylcyclopropyl]amine dihydrochloride salt] | 7.00 to 9.00 | < 4.40 | 4.40 to 6.00 |  |  |  |  | 
2 | c1ccc([C@@H]2C[C@H]2NCCNC2CC2)cc1 (relative stereo) [Example 2, N-cyclopropyl-N′-[(trans)-2-phenylcyclopropyl]ethane-1,2-diamine dihydrochloride salt] | 6.00 to 7.00 | 4.40 to 6.00 | 6.00 to 7.00 |  |  |  |  | 
3 | CN(C)CCNCCN[C@@H]1C[C@H]1c1ccccc1 (relative stereo) [Example 3, N,N-dimethyl-N′-(2-{[(trans)-2-phenylcyclopropyl]amino}ethyl)ethane-1,2-diamine] | 6.00 to 7.00 | < 4.40 | 4.40 to 6.00 |  |  |  |  | 
4 | Cl.Cl.c1ccc([C@@H]2C[C@H]2NCCN2CCNCC2)cc1 (relative stereo) [Example 7, N-[(trans)-2-phenylcyclopropyl]-N-(2-piperazin-1-ylethyl)amine dihydrochloride salt] | 7.00 to 9.00 |  | < 4.40 | ~4.40 | I, II |  |  | 
5 | CCN(CC)CCN[C@@H]1C[C@H]1c1ccccc1 (relative stereo) [Example 8, N1,N1-diethyl-N2-((trans)-2-phenylcyclopropyl)ethane-1,2-diamine dihydrochloride salt] | 7.00 to 9.00 | 4.40 to 6.00 | < 4.40 |  |  |  |  | 
6 | c1ccc([C@@H]2C[C@H]2NCCN2CCCCC2)cc1 (relative stereo) [Example 9, N-[(trans)-2-phenylcyclopropyl]-N-(2-piperidin-1-ylethyl)amine] | 7.00 to 9.00 | < 4.40 | 4.40 to 6.00 |  |  |  |  | 
7 | CN1CCN(CCN[C@@H]2C[C@H]2c2ccc(OCc3ccccc3)cc2)CC1 (relative stereo) [Example 10, (trans)-2-(4-(benzyloxy)phenyl)-N-(2-(4-methylpiperazin-1-yl)ethyl)cyclopropanamine dihydrochloride salt] | 7.00 to 9.00 | 4.40 to 6.00 | 4.40 to 6.00 |  |  | ~4.96 |  | 
8 | CN1CCN(CCN[C@@H]2C[C@H]2c2ccc(-c3cccc(C(F)(F)F)c3)cc2)CC1 (relative stereo) [Example 11, (Trans)-N-(2-(4-methylpiperazin-1-yl)ethyl)-2-(3′-(trifluoromethyl)biphenyl-4-yl)cyclopropanamine dihydrochloride] | 7.00 to 9.00 | 4.40 to 6.00 | 4.40 to 6.00 |  |  |  |  | 
9 | CN1CCN(CCN[C@@H]2C[C@H]2c2ccc(-c3cccc(Cl)c3)cc2)CC1 (relative stereo) [Example 12, (Trans)-2-(3′-chlorobiphenyl-4-yl)-N-(2-(4-methylpiperazin-1-yl)ethyl)cyclopropanamine dihydrochloride] | 7.00 to 9.00 |  | 4.40 to 6.00 |  |  |  |  | 
10 | FC(F)(F)c1cccc(-c2ccc([C@@H]3C[C@H]3NCCNC3CC3)cc2)c1 (relative stereo) [Example 14, N^1-cyclopropyl-N^2-((trans)-2-(3′-(trifluoromethyl)biphenyl-4-yl)cyclopropyl)ethane-1,2-diamine] | 6.00 to 7.00 | 4.40 to 6.00 |  |  |  |  | II, I II | 
11 | CC(C)CSCCN[C@@H]1C[C@H]1c1ccccc1 (relative stereo) [Example 15, N-(trans)-2-(isobutylthio)-ethyl-2-phenylcyclopropanamine hydrochloride] | 6.00 to 7.00 | 4.40 to 6.00 | 4.40 to 6.00 |  |  |  |  | 
12 | CCOCCN[C@@H]1C[C@H]1c1ccccc1 (relative stereo) [Example 16, N-trans-(2-ethoxyethyl)-2-phenylcyclopropanamine hydrochloride] | 6.00 to 7.00 | 4.40 to 6.00 | 4.40 to 6.00 |  |  |  |  | 
13 | COCCN[C@@H]1C[C@H]1c1ccccc1 (relative stereo) [Example 17, N-trans-(2-methoxyethyl)-2-phenylcyclopropanamine hydrochloride] | 6.00 to 7.00 | 4.40 to 6.00 | 4.40 to 6.00 |  |  |  |  | 
14 | Cl.Cl.N[C@@H]1CCN(CCN[C@H]2CC2c2ccccc2)C1 (stereo partly drawn) [Example 4, (3R)-1-(2-{[(trans)-2-phenylcyclopropyl]amino}ethyl)pyrrolidin-3-amine dihydrochloride salt] | 7.00 to 9.00 | < 4.40 | < 4.40 |  |  |  |  | more than 100 fold
15 | CN(C)[C@H]1CCN(CCN[C@H]2CC2c2ccccc2)C1 (stereo partly drawn) [Example 5, (3S)—N,N-dimethyl-1-(2-{[(trans)-2-phenylcyclopropyl]amino}ethyl)pyrrolidin-3-amine dihydrochloride salt] |  | < 4.40 | < 4.40 |  |  |  |  | 
16 | CN(C)[C@@H]1CCN(CCN[C@H]2CC2c2ccccc2)C1 (stereo partly drawn) [Example 6, (3R)—N,N-dimethyl-1-(2-{[(trans)-2-phenylcyclopropyl]amino}ethyl)pyrrolidin-3-amine] |  | 4.40 to 6.00 | 4.40 to 6.00 |  |  |  |  | 
17 | N[C@@H]1CCN(CCN[C@H]2CC2c2ccc(-c3cccc(C(F)(F)F)c3)cc2)C1 (stereo partly drawn) [Example 13, (R)-1-(2-((trans)-2-(3′-(trifluoromethyl)biphenyl-4-yl)cyclopropylamino)ethyl)pyrrolidin-3-amine dihydrochloride] | 7.00 to 9.00 | 4.40 to 6.00 | 4.40 to 6.00 |  |  |  |  | 
